One may read the Ki as a dissociation constant, usually derived from enzyme kinetics or from competition with a known ligand. As a reminder, the IC50 is the concentration that gives 50% inhibition. A high value points to a need for much substance.

The record followed here is patent US20050256161A1, “Melanin concentrating hormone receptor antagonists” (priority 2003, published 2005).

One experiment deals with T1, human MCH receptor (Homo sapiens, UniProt Q99705).
T1 construct: expressed in transfected cells
T1 sequence (Q99705 whole entry): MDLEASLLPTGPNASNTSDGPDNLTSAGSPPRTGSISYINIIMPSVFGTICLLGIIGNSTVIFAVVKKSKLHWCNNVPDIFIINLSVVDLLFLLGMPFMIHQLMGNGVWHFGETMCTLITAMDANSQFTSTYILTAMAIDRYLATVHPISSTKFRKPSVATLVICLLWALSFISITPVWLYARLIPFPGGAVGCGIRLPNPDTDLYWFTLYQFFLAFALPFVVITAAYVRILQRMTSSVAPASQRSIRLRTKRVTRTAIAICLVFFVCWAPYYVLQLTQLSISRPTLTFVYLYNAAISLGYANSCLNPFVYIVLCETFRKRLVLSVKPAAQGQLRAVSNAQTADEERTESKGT
The experiment can be described thus: hMCH FLIPR calcium mobilization functional assay. It is filed as cell-based.

For a further experiment, the target named is T2, rat MCH1 receptor (Rattus norvegicus, UniProt P97639).
T2 construct: expressed in transfected cells
T2 sequence (P97639 whole entry): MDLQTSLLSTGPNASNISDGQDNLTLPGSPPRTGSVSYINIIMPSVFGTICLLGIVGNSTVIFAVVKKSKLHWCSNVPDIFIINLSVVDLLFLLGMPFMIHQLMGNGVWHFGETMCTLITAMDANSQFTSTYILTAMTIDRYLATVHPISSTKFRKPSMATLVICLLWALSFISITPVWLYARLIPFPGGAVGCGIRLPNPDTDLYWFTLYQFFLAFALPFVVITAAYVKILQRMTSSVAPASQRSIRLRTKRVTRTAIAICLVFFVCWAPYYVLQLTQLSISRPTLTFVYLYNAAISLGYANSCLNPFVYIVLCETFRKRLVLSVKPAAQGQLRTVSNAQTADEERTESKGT
The experiment can be described thus: rMCH FLIPR calcium mobilization functional assay. It is filed as cell-based. The settings on record: CHOK1-Gqi cells. The method, then:
Pharmacological analyses were conducted using either a HT-PS100 device (Axiom Biotechnologies, San Diego, Calif.), which provides high-resolution dose-response fluorometric measurements of [Ca^++]i mobilization, or using a FLIPR® device (Molecular Devices, Sunnyvale, Calif.).
Materials: Pharmacological analysis was conducted using a FLIPR® device (Molecular Devices, Sunnyvale, Calif.). CHOK1-Gqi cells were stably transfected with the rat MCH1 receptor and maintained under G418 antibiotic pressure. FLIPR® assay buffer consisted of phenol red-free DMEM+2.5 mM probenecid. MCH peptide (Amgen, Inc.) was reconstituted in assay buffer and served as the positive agonist control for all experiments. Test compounds were prepared as 10 mM stocks in 100% DMSO and diluted to a top end working concentration of 10 μM in 96 well black, flat bottom, collagen-I coated plates (Becton Dickinson, Bedford, Mass.).
Methods: CHOK1-Gqi cells stably expressing MCH1R were maintained in Dulbeco's modified Eagle's medium (GIBCO/Life Technologies, Rockville, Md.) supplemented with 2 mM glutamine and 10% dialyzed fetal bovine serum (HyClone, Logan, Utah) at 37° C., 5% CO2. Cells were harvested by 10′ treatment with Versene (GIBCO/Life Technologies) followed by trituration, washing twice with cold (4° C.) hybridoma medium (Serum/Protein free, with L-glutamine, sodium bicarbonate, MOPS buffer) (Sigma-Aldrich Corp, St. Louis, Mo.) and replated onto 96 well black, flat bottom, collagen-I coated plates to a density of 10,000 cells/well. The cells were then loaded with the fluorescent calcium indicator Fura-2 (Molecular Probes, Eugene, Oreg.) at 1.6 μM for 60′ at room temperature. The loaded cells were then washed twice with 90 μl/well of wash buffer (1×HBSS, 20 mM HEPES, 2.5 mM probenecid).
Receptor-stimulated intracellular calcium responses were detected using FLIPR® by monitoring increases in the Fura-2 fluorescence response.
Test compounds were screened for MCH1R activity in the FLIPR® for both agonist and antagonist action. Agonist mode challenges were conducted at a maximum gradient concentration of 1 μM. Antagonist activity was tested by 10 min pre-incubation of cells at a compound concentration of defined to be 300× the EC50 of MCH (typically 1 μM), with subsequent introduction of MCH at a concentration 5-fold of EC50 as determined in preliminary experiments.
Schild experiments were conducted on the FLIPR® for selected compounds by co-administering antagonist compounds together with MCH peptide. Several fixed concentrations of antagonist compounds were prepared in 10-fold increments, and presented to the cells in a gradient of increasing MCH concentration. Values for compound pA2 were calculated by linear regression of MCH EC50s as a function of antagonist concentration.
A general note: Calcium flux is commonly read through the fluorescence of an indicator in the cells.

In experiment [1] the target is T3, human MCH 1 receptor (hMCH1R) (Homo sapiens, UniProt Q99705).
T3 construct: expressed in transfected cells; host or cells: HEK 293 (membrane preparation)
T3 sequence (Q99705 whole entry): as the sequence (Q99705 whole entry) above
In words: Ligand binding assay (125I native-MCH), hMCH. The settings on record: hMCH1R expressed in HEK 293, membranes, 0.2 nM 125I native-MCH. As for the experimental part: (§1) Human embryonic kidney cells (293 total) expressing either human, rat, or mouse MCH receptor were harvested from 150 mm culture dishes using PBS. Spinning at 1500 rpm for 2 minutes initially pelleted cells. The resulting pellet was then homogenized in 15 mL ice cold sucrose buffer (25 mM HEPES, 0.3 M sucrose, pH 7.4) with a motorized, glass fitted, Teflon® homogenizer. The homogenate was centrifuged at 48,000×g at 4° C. for 10 minutes, resuspended in 15 mL assay buffer (25 mM HEPES, 10 mM MgCl2, 0.2% BSA, 0.1 mg/mL STI, 0.1 mg/mL Pefabloc®, 1 μM Phosphoramidon, pH 7.4) with a Tissue-Tearor® (Biospec Products) and centrifuged again at 48,000×g for 10 minutes. The pellet was homogenized for a third time in 15 mL assay buffer using the Tissue-Tearor® and again centrifuged at 48,000×g for 10 minutes. The resulting pellet was resuspended in assay buffer at a wet weight concentration of 10-20 mg/mL.
(§2) Binding assays were determined as described below using mouse, rat or human MCH 1 receptors (mMCH1R, rMCH1R, and hMCH1R, respectively) expressed in HEK 293; IC50 values were calculated.
(§3) Binding assays were performed in 96-well U-bottom plates. Membranes (100 μg tissue) were incubated at 30° C. for 90 minutes in assay buffer with various peptides in the presence of 0.2 nM 125I native-MCH (Perkin-Elmer Life Sciences, Boston, Mass.) in 100 μL total volume. Non-specific binding was assessed in the presence of 1 μM cold native-MCH. The reaction was terminated by rapid filtration through Unfilter-96 GF/C glass fiber filter plates (FilterMate® 196 Harvester, Packard Instrument Co., Meriden, Conn.) pre-soaked in PBS/0.5% BSA, followed by three washes with 300 μL ice-cold water. Bound radioactivity was determined using a TopCount® microplate scintillation and luminescence counter (Packard Instrument Co., Meriden, Conn.). Nonlinear regression analyses of drug concentration curves were performed using GraphPad Prism® (GraphPad Software, Inc., San Diego, Calif.).

For experiment [2], the target named is T4, rat MCH 1 receptor (rMCH1R) (Rattus norvegicus, UniProt P97639).
T4 construct: expressed in transfected cells; host or cells: HEK 293 (membrane preparation)
T4 sequence (P97639 whole entry): as the sequence (P97639 whole entry) above
In words: Ligand binding assay (125I native-MCH), rMCH. The settings on record: rMCH1R expressed in HEK 293, membranes, 0.2 nM 125I native-MCH. As for the experimental part:
as §1, §2, §3

As to `Cc1ccc(Oc2ccc(C(=O)NCCN3CCCC3)cc2NC(=O)Nc2ccccc2)cc1C` [Compound 1, 4-[(3,4-dimethylphenyl)oxy]-3-{[(phenylamino)carbonyl]amino}-N-(2-(1-pyrrolidinyl)ethyl)benzamide], the Ki is ≤ 0.1 µM on human MCH receptor (threshold 100 nM or less), ≤ 100 µM at human MCH receptor (threshold 100 μM or less), ≤ 0.1 µM at rat MCH1 receptor (threshold 100 nM or less) and ≤ 100 µM at rat MCH1 receptor (threshold 100 μM or less). Also, the IC50 in experiment [1] (threshold 100 nM or less) was ≤ 0.1 µM; in experiment [1] (threshold 100 μM or less), ≤ 100 µM; in experiment [2] (threshold 100 nM or less), ≤ 0.1 µM; in experiment [2] (threshold 100 μM or less), ≤ 100 µM.
`Cc1ccc(Oc2ccc(C(=O)NCCN3CCCC3)cc2NC(=O)Nc2cccc(F)c2)cc1` [Compound 56, 3-[3-(3-fluorophenyl)ureido]-N-(2-pyrrolidin-1-yl-ethyl)-4-p-tolyloxybenzamide]: the Ki at human MCH receptor (threshold 100 nM or less) is ≤ 0.1 µM; on human MCH receptor (threshold 100 μM or less) it was ≤ 100 µM; on rat MCH1 receptor (threshold 100 μM or less) it was ≤ 100 µM. The values for the IC50 in experiment [2] (threshold 100 nM or less) and in experiment [2] (threshold 100 μM or less) were ≤ 0.1 µM and ≤ 100 µM, respectively.
With `Cc1ccc(Oc2ccc(C(=O)NCCN3CCCC3)cc2NC(=O)CCc2ccccc2)cc1C` [Compound 5, 4-[(3,4-dimethylphenyl)oxy]-3-[(3-phenylpropanoyl)amino]-N-(2-(1-pyrrolidinyl)ethyl)benzamide], the Ki at human MCH receptor (threshold 100 μM or less) and at rat MCH1 receptor (threshold 100 μM or less) was ≤ 100 µM throughout. For the same compound, the IC50 in experiment [1] (threshold 100 μM or less) is ≤ 100 µM.
As for `COc1cccc(NC(=O)Nc2cc(C(=O)NCCN3CCCC3)ccc2Oc2ccc(C)c(C)c2)c1` [Compound 40, 4-(3,4-dimethylphenoxy)-3-[3-(3-methoxyphenyl)ureido]-N-(2-pyrrolidin-1-yl-ethyl)benzamide], the Ki at human MCH receptor (threshold 100 nM or less) is ≤ 0.1 µM; on human MCH receptor (threshold 100 μM or less), ≤ 100 µM; at rat MCH1 receptor (threshold 100 nM or less), ≤ 0.1 µM; on rat MCH1 receptor (threshold 100 μM or less), ≤ 100 µM. Moreover, the IC50 in experiment [1] (threshold 100 nM or less) was ≤ 0.1 µM; in experiment [1] (threshold 100 μM or less) it was ≤ 100 µM; in experiment [2] (threshold 100 nM or less) it was ≤ 0.1 µM; in experiment [2] (threshold 100 μM or less) it was ≤ 100 µM.
For `Cc1ccc(Oc2ccc(C(=O)NCCN3CCCC3)cc2NC(=O)NCc2ccccc2)cc1C` [Compound 6, 4-[(3,4-dimethylphenyl)oxy]-3-({[(phenylmethyl)amino]carbonyl}amino)-N-(2-(1-pyrrolidinyl)ethyl)benzamide], the Ki at human MCH receptor (threshold 100 nM or less) was ≤ 0.1 µM; on human MCH receptor (threshold 100 μM or less), ≤ 100 µM; at rat MCH1 receptor (threshold 100 nM or less), ≤ 0.1 µM; at rat MCH1 receptor (threshold 100 μM or less), ≤ 100 µM. Also, the IC50 in experiment [1] (threshold 100 nM or less) is ≤ 0.1 µM; in experiment [1] (threshold 100 μM or less), ≤ 100 µM.
With `Cc1ccc(Oc2ccc(C(=O)NCCN3CCCC3)cc2NC(=O)Nc2cc(F)cc(F)c2)cc1C` [Compound 58, 3-[3-(3,5-difluorophenyl)ureido]-4-(3,4-dimethylphenoxy)-N-(2-pyrrolidin-1-yl-ethyl)benzamide], the Ki on human MCH receptor (threshold 100 μM or less) and at rat MCH1 receptor (threshold 100 μM or less) was ≤ 100 µM throughout. Besides, the IC50 in experiment [1] (threshold 100 nM or less) is ≤ 0.1 µM; in experiment [1] (threshold 100 μM or less), ≤ 100 µM; in experiment [2] (threshold 100 nM or less), ≤ 0.1 µM; in experiment [2] (threshold 100 μM or less) it was ≤ 100 µM.
As for `Cc1cc(Oc2ccc(C(=O)NCCN3CCCC3)cc2NC(=O)Nc2cccc(F)c2)ccc1F` [Compound 51, 4-(4-fluoro-3-methylphenoxy)-3-[3-(3-fluorophenyl)ureido]-N-(2-pyrrolidin-1-yl-ethyl)benzamide], the Ki on human MCH receptor (threshold 100 nM or less) is ≤ 0.1 µM; on human MCH receptor (threshold 100 μM or less), ≤ 100 µM; on rat MCH1 receptor (threshold 100 μM or less), ≤ 100 µM. Also, the figures for the IC50 in experiment [2] (threshold 100 nM or less) and in experiment [2] (threshold 100 μM or less) were ≤ 0.1 µM and ≤ 100 µM, respectively.
`Cc1ccc(Oc2ccc(CNCCN3CCCC3)cc2NC(=O)Nc2cccc(F)c2)cc1C` [Compound 64, 1-{2-(3,4-dimethylphenoxy)-5-[(2-pyrrolidin-1-yl-ethylamino)-methyl]phenyl}-3-(3-fluorophenyl)urea]: the Ki at human MCH receptor (threshold 100 μM or less) and at rat MCH1 receptor (threshold 100 μM or less) was ≤ 100 µM throughout. Also, the IC50 in experiment [1] (threshold 100 μM or less) and in experiment [2] (threshold 100 μM or less) was ≤ 100 µM in each case.
In the case of `O=C(Nc1cccc(F)c1)Nc1cc(C(=O)NCCN2CCCC2)ccc1Oc1cccc(F)c1` [Compound 55, 4-(3-fluorophenoxy)-3-[3-(3-fluorophenyl)ureido]-N-(2-pyrrolidin-1-yl-ethyl)benzamide], the Ki on human MCH receptor (threshold 100 μM or less) and at rat MCH1 receptor (threshold 100 μM or less) was ≤ 100 µM in each case. Also, the values for the IC50 in experiment [2] (threshold 100 nM or less) and in experiment [2] (threshold 100 μM or less) were ≤ 0.1 µM and ≤ 100 µM, respectively.
Regarding `Cc1cccc(Oc2ccc(C(=O)NCCN3CCCC3)cc2NC(=O)Nc2cccc(F)c2)c1` [Compound 57], the Ki at human MCH receptor (threshold 100 nM or less) was ≤ 0.1 µM; at human MCH receptor (threshold 100 μM or less), ≤ 100 µM; on rat MCH1 receptor (threshold 100 μM or less) it was ≤ 100 µM. In addition, the IC50 in experiment [2] (threshold 100 nM or less) is ≤ 0.1 µM; in experiment [2] (threshold 100 μM or less), ≤ 100 µM.
`Cc1ccc(Oc2ccc(C(=O)NCCN3CCCC3)cc2NC(=O)Nc2cc(Cl)cc(Cl)c2)cc1C` [Compound 59, 3-[3-(3,5-dichlorophenyl)ureido]-4-(3,4-dimethylphenoxy)-N-(2-pyrrolidin-1-yl-ethyl)benzamide]: the inhibition constant Ki at human MCH receptor (threshold 100 μM or less) and at rat MCH1 receptor (threshold 100 μM or less) was ≤ 100 µM throughout. Also, the IC50 in experiment [1] (threshold 100 nM or less) was ≤ 0.1 µM; in experiment [1] (threshold 100 μM or less), ≤ 100 µM; in experiment [2] (threshold 100 nM or less), ≤ 0.1 µM; in experiment [2] (threshold 100 μM or less), ≤ 100 µM.
With `O=C(Nc1cccc(F)c1)Nc1cc(C(=O)NCCN2CCCC2)ccc1Oc1ccc(F)c(F)c1` [Compound 53, 4-(3,4-difluorophenoxy)-3-[3-(3-fluorophenyl)ureido]-N-(2-pyrrolidin-1-yl-ethyl)benzamide], the Ki at human MCH receptor (threshold 100 μM or less) and on rat MCH1 receptor (threshold 100 μM or less) was ≤ 100 µM each time. Further, the IC50 in experiment [2] (threshold 100 nM or less) is ≤ 0.1 µM; in experiment [2] (threshold 100 μM or less) it was ≤ 100 µM.
For the compound `O=C(Nc1cccc(F)c1)Nc1cc(C(=O)NCCN2CCCC2)ccc1Oc1ccc(Cl)c(Cl)c1` [Compound 52, 4-(3,4-dichlorophenoxy)-3-[3-(3-fluorophenyl)ureido]-N-(2-pyrrolidin-1-yl-ethyl)benzamide], the Ki on human MCH receptor (threshold 100 μM or less) was ≤ 100 µM. The IC50 in experiment [2] (threshold 100 nM or less) was ≤ 0.1 µM; in experiment [2] (threshold 100 μM or less) it was ≤ 100 µM.
Regarding `O=C(Nc1cccc(F)c1)Nc1cc(C(=O)NCCN2CCCC2)ccc1Oc1ccc(F)cc1` [Compound 54, 4-(4-fluorophenoxy)-3-[3-(3-fluorophenyl)ureido]-N-(2-pyrrolidin-1-yl-ethyl)benzamide], the Ki at human MCH receptor (threshold 100 μM or less) and on rat MCH1 receptor (threshold 100 μM or less) was ≤ 100 µM throughout. Moreover, the IC50 in experiment [2] (threshold 100 nM or less) is ≤ 0.1 µM; in experiment [2] (threshold 100 μM or less), ≤ 100 µM.
